Reference: ChEMBL document CHEMBL2434821, “New phenstatin-fatty acid conjugates: synthesis and evaluation” (Bioorg Med Chem Lett, 2013)

Assay: Cytotoxicity against human KB-3-1 cells assessed as cell survival at 0.5 uM after 72 hrs by MTT assay relative to control
Settings: KB 3-1, 72 h

## CCCCC/C=C\C/C=C\CCCCCCCC(=O)Oc1cc(C(=O)c2cc(OC)c(OC)c(OC)c2)ccc1OC
  cell survival at 0.5 µM: 20%
